The text below walks through data of patent publication US7939552B2, “Benzyloxypropylamine derivative” (Nippon Zoki Pharmaceutical Co., Ltd., priority 2005, dated 2011).

pIC50: −log10 of the molar value. Where two headings read alike, the source gives them in different places.

Series [1] concerns the target T1, human NK1 receptor (Homo sapiens, UniProt P25103).
T1 construct: expressed in transfected cells; host or cells: CHO cells (hNK1-CHO)
The series is described as follows: Human NK1 receptor binding assay (3H-Sar9-SP, hNK1-CHO cells). As to conditions: room temperature 60 minutes. The protocol: A supernatant liquid was removed from an hNK1-CHO cell incubation flask in a confluent state, trypsin (0.25%)-EDTA (1 mmol/L) (Gibco) was added thereto and the cells were exfoliated and recovered. After they were washed with a buffer A (pH 7.5; 50 mmol/L Tris hydrochloride 50 mmol/L, 150 mmol/L NaCl and 0.02% BSA) for one time (at […] for 5 minutes), cell numbers were adjusted and re-floated on a buffer for assay {a buffer A to which 40 μg/mL bacitracin (Sigma), 4 μg/mL leupeptin (Sigma), 4 μg/mL chymostatin (Sigma) and 4 μg/mL phosphoramidon (Sigma) were added}. The hNK1-CHO cells (100 μL) were placed in a tube (TPX-12, Maruemu) in which 300 μL of the buffer for assay was charged so as to make cells 10^5 per tube, 50 μL of a hot solution (^3H-Sar^9-SP, final concentration: […]) and 50 μL of a substance to be tested were added (a system of 500 μL), stirred and made to react at room temperature for 60 minutes. After completion of the reaction, it was filtered through a GF/B filter (25 mm diameter, Whatman) which was previously dipped in 0.1% polyethyleneimine p-70 (Wako Pure Chemical), washed with the buffer A (4 mL each for three times), placed in a vial and dried at 60° C. for one night. After drying, 10 mL of a scintillator (AL-1, toluene base, Dojindo) was added thereto and dpm was measured by a liquid scintillation counter (for 5 minutes/vial).
With regard to a nonspecific binding, it was defined as the dpm when 10 μmol/L of the substance P was added instead of the substance to be tested. The experiment was conducted in duplicate and at least three experiments were repeated. IC50 value was calculated using a probit method (statistic library II, Yukms).

A short description of series [2]: Pharmacokinetic test in blood by a single oral administration to guinea pigs. It is filed as in vivo. Conditions: 100 mg/kg orally, plasma; for AUC(0-t): read-out: AUC 0-24 h; for half-life: read-out: t½ (converted). How it is done:
Male guinea pigs of a Hartley strain (SPF, Nippon SLC) were purchased and subjected to a preliminary breeding for one week and the normally grown ones were fasted for one night and used for the test. The compound of the present invention was suspended in 1 g/dL methyl cellulose solution and 100 mg/kg was orally administered in an administering dose of 5 mL/kg. After 0.5, 1, 2, 4, 8 and 24 hour(s) from the oral administration, about 0.4 mL of blood was collected from the vein of median of foreleg using a heparinized capillary. Plasma prepared by its centrifugation (at 12,000 rpm for 10 minutes) was stored at −80° C. until the measurement. Measurement of the concentration in blood was conducted by a UV-detecting HPLC method.

The target of series [3] is T2, NK1 receptor (Cavia porcellus, UniProt P30547).
T2 construct: the brain was excised and the striatum was collected; from tissue; host or cells: striatum of male Hartley guinea pigs (Nippon SLC), homogenate after oral dosing
T2 sequence (P30547 whole entry): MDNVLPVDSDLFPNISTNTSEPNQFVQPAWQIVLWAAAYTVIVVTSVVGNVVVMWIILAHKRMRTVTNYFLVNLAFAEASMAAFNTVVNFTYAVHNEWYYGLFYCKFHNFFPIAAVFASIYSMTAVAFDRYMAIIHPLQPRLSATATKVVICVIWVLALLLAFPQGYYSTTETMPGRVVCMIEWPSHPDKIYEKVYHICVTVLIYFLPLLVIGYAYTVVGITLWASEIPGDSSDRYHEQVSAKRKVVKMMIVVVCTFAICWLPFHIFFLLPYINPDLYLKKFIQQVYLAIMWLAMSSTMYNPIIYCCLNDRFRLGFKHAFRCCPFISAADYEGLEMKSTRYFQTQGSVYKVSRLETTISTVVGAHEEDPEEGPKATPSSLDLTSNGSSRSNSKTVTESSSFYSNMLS
The series is described as follows: Test for transfer into cerebral center of guinea pigs ([3H]substance P binding in striatum homogenate after oral dosing). It is filed as in vivo. Conditions: 4 hours after oral administration of 20 mg/mL at 5 mL/kg. The protocol:
Male guinea pigs of a Hartley strain (four weeks age, SPF, Nippon SLC) were purchased, subjected to a preliminary breeding for not shorter than one week, fasted for one night and used for the test where one group comprised eight guinea pigs. As a substance to be tested, the Compound 21 which is the compound of the present invention was suspended in 1% methyl cellulose […] to make 20 mg/mL. As a substance for comparison, LY-303870 [(R)-1-[N-(2-methoxybenzyl)acetylamino]-3-(1H-indol-3-yl)-2-[N-(2-(4-(piperidin-1-yl)piperidin-1-yl)acetyl)amino]propane] was dissolved in a 1% aqueous solution of MC to make 20 mg/mL.
A test was conducted in accordance with a method of Iyengar, et al. Thus, a 1% aqueous solution of MC and the above-prepared solution of the test substance were orally administered in an administering dose of 5 mL/kg, then the animals were killed by carbon dioxide gas after 4 hours from administration of the test substance solution and after 1 hour from administration of the 1% aqueous MC solution and the comparative substance solution, the brain was excised and the striatum was collected. After measuring its wet weight, 50 mmol/L Tris-HCl (pH 7.5) was added thereto so as to make it 40 mg/mL followed by homogenizing for 10 seconds. […]

Where [4] appears, read: male, Hartley, guinea pig, po, read-out: Cmax.
Where [5] appears, read: male, Hartley, guinea pig, po, read-out: Tmax.

T1 sequence (P25103 whole entry): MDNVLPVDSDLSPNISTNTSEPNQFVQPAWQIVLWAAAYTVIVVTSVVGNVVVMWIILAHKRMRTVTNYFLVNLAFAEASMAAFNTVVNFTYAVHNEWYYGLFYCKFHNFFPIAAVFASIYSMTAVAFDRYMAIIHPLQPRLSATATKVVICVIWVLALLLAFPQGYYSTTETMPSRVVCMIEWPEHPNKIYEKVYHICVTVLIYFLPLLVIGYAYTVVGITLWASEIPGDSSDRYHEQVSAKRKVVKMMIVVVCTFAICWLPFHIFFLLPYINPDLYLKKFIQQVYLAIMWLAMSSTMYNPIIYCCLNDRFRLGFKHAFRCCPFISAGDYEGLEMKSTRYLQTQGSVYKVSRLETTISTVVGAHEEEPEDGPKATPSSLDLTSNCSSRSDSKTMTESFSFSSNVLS

A word on the pIC50: it is the IC50 on a negative log10 scale, so that one unit is a factor of ten. The Cmax is the highest concentration seen after dosing. By Tmax is commonly meant the time at which the peak concentration occurs. Consider `O=C(NCC(COCc1cc(C(F)(F)F)cc(C(F)(F)F)c1)c1ccccc1)c1ccc[n+]([O-])c1` (centres unmarked) [Compound 22, N-[3-(3,5-Bis(trifluoromethyl)benzyloxy)-2-phenylpropyl]-1-oxynicotinamide], for which the negative logarithm of the IC50 (pIC50) in series [1] was 8.19. For the same molecule, in series [2] (male, Hartley, guinea pig, po), the AUC(0-t) is 200 µg·h/mL and the half-life is 156 min. In addition, the maximum concentration (Cmax) in series [2] (setting [4]) was determined as 18300 ng/mL. Moreover, in series [2] (setting [5]), the Tmax came out at 2 h.

For `O=C(CCc1cc[n+]([O-])cc1)NCC(COCc1cc(C(F)(F)F)cc(C(F)(F)F)c1)c1ccccc1` (centres unmarked) [Compound 51, N-[3-(3,5-Bis(trifluoromethyl)benzyloxy)-2-phenylpropyl]-3-(1-oxypyridin-4-yl)propionamide], the negative logarithm of the IC50 (pIC50) in series [1] was 8.03. Also, in series [2] (male, Hartley, guinea pig, po), the AUC(0-t) came out at 103 µg·h/mL and the half-life was 204 min. Further, in series [2] (setting [4]), the maximum concentration (Cmax) is 13800 ng/mL. The Tmax in series [2] (setting [5]) was determined as 1 h.

With `O=C(NCC(COCc1cc(C(F)(F)F)cc(C(F)(F)F)c1)c1ccccc1)c1cc[n+]([O-])cc1` (centres unmarked) [Compound 20, N-[3-(3,5-Bis(trifluoromethyl)benzyloxy)-2-phenylpropyl]-1-oxyisonicotinamide], in series [1], the pIC50 was 8.24. In addition, in series [2] (male, Hartley, guinea pig, po), the AUC(0-t) turned out to be 87.3 µg·h/mL and the half-life was 204 min. Also, the Cmax in series [2] (setting [4]) was 10900 ng/mL. The Tmax in series [2] (setting [5]) was 2 h.

`Cl.O=C(NCC(COCc1cc(C(F)(F)F)cc(C(F)(F)F)c1)c1ccccc1)c1ccc(CN2CCCC2)cc1` (centres unmarked) [Compound 64, N-[3-(3,5-Bis(trifluoromethyl)benzyloxy)-2-phenylpropyl]-4-pyrrolidin-1-ylmethylbenzamide hydrochloride] showed a pIC50 in series [1] of 7.25. Further, in series [2] (male, Hartley, guinea pig, po), the AUC(0-t) stood at 19.7 µg·h/mL and the half-life was 480 min. Besides, the maximum concentration (Cmax) in series [2] (setting [4]) stood at 1700 ng/mL. In addition, the Tmax in series [2] (setting [5]) is 4 h.

In the case of `O=C(Cc1cc[n+]([O-])cc1)NCC(COCc1cc(C(F)(F)F)cc(C(F)(F)F)c1)c1ccccc1` (centres unmarked) [Compound 39, N-[3-(3,5-Bis(trifluoromethyl)benzyloxy)-2-phenylpropyl]-2-(1-oxypyridin-4-yl)acetamide], the pIC50 in series [1] is 8.14. In addition, in series [2] (male, Hartley, guinea pig, po), the AUC(0-t) was found to be 379 µg·h/mL and the half-life was 192 min. Also, in series [2] (setting [4]), the highest concentration (Cmax) was 25700 ng/mL. The time to peak (Tmax) in series [2] (setting [5]) turned out to be 8 h.

As to `Cl.O=C(NCC(COCc1cc(C(F)(F)F)cc(C(F)(F)F)c1)c1ccccc1)C1CCNCC1` (centres unmarked) [Compound 4, N-[3-(3,5-Bis(trifluoromethyl)benzyloxy)-2-phenylpropyl]piperidine-4-carboxamide hydrochloride], the pIC50 in series [1] is 7.53. Moreover, in series [2] (male, Hartley, guinea pig, po), the AUC(0-t) was found to be 28.2 µg·h/mL. Moreover, the peak concentration (Cmax) in series [2] (setting [4]) came to 2000 ng/mL. In addition, the time of peak concentration (Tmax) in series [2] (setting [5]) came to 8 h.

For `O=C(NCC(COCc1cc(C(F)(F)F)cc(C(F)(F)F)c1)c1ccc(F)cc1)c1ccc[n+]([O-])c1` (centres unmarked) [Compound 23, N-[3-(3,5-Bis(trifluoromethyl)benzyloxy)-2-(4-fluorophenyl)propyl]-1-oxynicotinamide], in series [1], the negative-log IC50 (pIC50) is 8.27. In addition, in series [2] (male, Hartley, guinea pig, po), the AUC(0-t) was determined as 236 µg·h/mL and the half-life was 210 min. Moreover, in series [2] (setting [4]), the Cmax was 17500 ng/mL. Further, the time of peak concentration (Tmax) in series [2] (setting [5]) was 4 h.

In series [1], `O=C(Cc1ccc[n+]([O-])c1)NCC(COCc1cc(C(F)(F)F)cc(C(F)(F)F)c1)c1ccc(F)cc1` (centres unmarked) [Compound 42, N-[3-(3,5-Bis(trifluoromethyl)benzyloxy)-2-(4-fluorophenyl)propyl]-2-(1-oxypyridin-3-yl)acetamide] showed a pIC50 of 8.40. For the same molecule, in series [2] (male, Hartley, guinea pig, po), the AUC(0-t) came out at 215 µg·h/mL and the half-life is 180 min. Also, in series [2] (setting [4]), the Cmax was found to be 16900 ng/mL. Further, the Tmax in series [2] (setting [5]) was found to be 4 h.

In series [1], `O=C(Cc1cc[n+]([O-])cc1)NCC(COCc1cc(C(F)(F)F)cc(C(F)(F)F)c1)c1ccc(F)cc1` (centres unmarked) [Compound 40, N-[3-(3,5-Bis(trifluoromethyl)benzyloxy)-2-(4-fluorophenyl)propyl]-2-(1-oxypyridin-4-yl)acetamide] showed a pIC50 of 8.14. In series [2] (male, Hartley, guinea pig, po), the AUC(0-t) came out at 279 µg·h/mL and the half-life was 240 min. Besides, in series [2] (setting [4]), the Cmax turned out to be 22800 ng/mL. For the same molecule, the Tmax in series [2] (setting [5]) was 4 h.

The t½ is the time needed for the level to fall by half in the phase considered. High values mean slow loss, low ones fast loss. The molecule `O=C(NCC(COCc1cc(C(F)(F)F)cc(C(F)(F)F)c1)c1ccc(F)cc1)c1cc[n+]([O-])cc1` (centres unmarked) [Compound 21, N-[3-(3,5-Bis(trifluoromethyl)benzyloxy)-2-(4-fluorophenyl)propyl]-1-oxyisonicotinamide] showed a pIC50 in series [1] of 8.54. In addition, the “specific binding of [3H]substance P” value in series [3] (guinea pig striatum homogenate, control group 1083.4±95.5 dpm) is 228.2±15.5 dpm. The “occupying rate of the NK1 receptor in the brain” value in series [3] (guinea pigs, mean value ±standard deviation) is given as 79.9±1.4%. Also, in series [2], the Cmax is 26900 ng/mL, the time to peak (Tmax) stood at 4 h and the t½ came to 3.2 h.
